Where two headings read alike, the source gives them in different places. Marks after values point to notes of the source that are not given here.
Columns and labels:
[1] = test system: Staphylococcus aureus (ATCC 25923) biofilm; assay: Biofilm inhibition, crystal violet staining; assay type: cell-based; design: MIC/IC50 Biofilm: unit not given here; conditions: for Phenotype: planktonic growth vs biofilm formation; for IC50: Staphylococcus aureus, ATCC25923; for MIC/IC50 Biofilm: ratio of MIC to IC50 of biofilm inhibition
Procedure: Biofilm Inhibition Protocol for S. aureus (ATCC 25923). A serial two-fold dilution of 2× bromophenazine small molecule concentration was made in 100 μL tryptic soy broth (TSB) medium with 0.5% glucose were delivered into 0.1% gelatin (Millipore) coated 96-well tissue culture plates. […] To each well, 100 μL of TSB with 0.5% glucose containing 2×10^6 CFU/mL Staphylococcus aureus cells, prepared from fresh culture (OD600 of 0.8), was added. The plates were incubated at 37° C. for 24 hours. The wells were gently rinsed by submerging the entire plates in a tub of cold, running tap water. The wells were then fixed with 200 μL methanol for 15 minutes. After the plates were air dried, the biofilms were stained with 100 μL of 1% crystal violet for 10 minutes. The plates were again rinsed with running water. After drying in air, quantitative assessment of biofilm formation was obtained by extracting the crystal violet associated with the remaining biofilm with 100 μL per well of the following bleaching solution (methanol:glacial acetic acid:water (v/v/v)=4:1:5). This bleaching solution dissolved the bound crystal violet and produced a violet-colored solution in each well. The intensity of coloration was determined by measuring the absorbance at 540 nm.

[2] = test system: Staphylococcus aureus (ATCC 25923); assay: MIC broth microdilution (CLSI), Luria Broth; assay type: cell-based; conditions: for fold more potent than compound 1: from MIC
Procedure, shortened: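 Two-fold serial dilutions (0.10–100 μM, eleven points) in Luria Broth, each well inoculated with 10^5 cells from log-phase culture (OD600 0.5), per CLSI broth microdilution. DMSO vehicle up to 1% v/v as negative control; kanamycin positive control for the staphylococci.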

[3] = test system: MRSA-2 biofilms; assay: Biofilm eradication assay (MBEC); assay type: cell-based, Staphylococcus aureus; conditions: for Biofilm Eradication MBEC: MRSA-2
Procedure: Biofilm eradication assays. […] The protocol for the biofilm eradication assays was essentially the same as the protocols reported in Eun et al., J. Am. Chem. Soc., 2012, 134, 11322 and Ceri et al., J. Clin. Microbiol., 1999, 37, 1771. Biofilm eradication assays were essentially biofilm dispersion assays with the addition of a final treatment with fresh media (and incubation at 37° C. for 24 hours) instead of crystal violet staining. This final incubation allowed viable cells within the biofilm to grow. At the end of this final incubation in biofilm eradication assays, microtiter wells void of turbidity represented eradicated biofilms, and the lowest concentration at which no visible growth was observed was referred to as the minimum biofilm eradication concentration (MBEC). Potent biofilm eradicating small molecules are extremely rare (Fletcher et al., Tetrahedron, 2014, 70, 6373; Jennings et al., ChemBioChem, 2014, 15, 2211). For these experiments, MRSA-2 was selected as the model since MRSA-2 is a multidrug-resistant, biofilm-forming clinical isolate of Staphylococcus aureus (Priyaja et al., Cytotechnol., 2014, doi: 10.1007/s10616-014-9765-5).

[4] = test system: Staphylococcus aureus (ATCC 25923) established biofilm; assay: Biofilm dispersion, crystal violet staining; assay type: cell-based; conditions: for EC50: Staphylococcus aureus, read-out: Biofilm Dispersion EC50
Procedure: Biofilm Dispersion Protocol for Staphylococcus aureus (ATCC 25923): A single colony grown on tryptic soy agar (TSA) solid medium is amplified in 2 milliliters of tryptic soy broth (TSB) medium with 0.5% glucose to an OD600=0.8-1.0. The bacterial suspension was then diluted to 1×10^6 CFU/mL in TSB with 0.5% glucose. Sterile 96-well flat-bottomed polystyrene plates (0.1% gelatin coated overnight) were then filled with 200 μL of this bacterial suspension. The plates were then covered and incubated for 24 hours at 37° C. Following this, the contents of the wells were discarded and washed with 200 μL PBS (one time). Then serial, two-fold dilutions of bromophenazine small molecules in 200 μL PBS were delivered into each well. The plates were then covered and incubated for another 24 hours at room temperature. After this incubation time, the plates were gently washed with water three times (wells were rinsed by submerging the entire plates in a tub of cold, running tap water). Remaining biofilms were then fixed with 200 μL of methanol for 15 minutes. The plates were emptied and left to air dry. Upon drying, 100 μL of 1% crystal violet was added to each well for 10 minutes, then washed three times with water and again air dried. For quantitative assessment of biofilm formation 100 μL per well of bleaching solution (methanol:glacial acetic acid:water (v/v/v)=4:1:5 with rotary shaking for 1 hour) was used. Remaining biofilm was measured using a spectrophotometer (absorbance readings at 540 nm).
Further microdilution MIC assays were carried out for 11, 21-26, and 4a-29a against Staphylococcus aureus (ATCC 25923) in Luria Broth media (at ˜10^5 CFUmL^−1) to establish the level of growth inhibition for each compound (see FIGS. 5-13). […] Differentiation of a “biofilm inhibitor” from an antibacterial agent was carried out according to the ratio of MIC/IC50 of biofilm inhibition (based on crystal violet staining dose-response). […] Following the biofilm inhibition screen, bromophenazines 12a, 14a, 18a and 20a were evaluated in three independent biofilm inhibition experiments against Staphylococcus aureus to obtain replicate data. […] In addition to inhibiting biofilm formation, small molecules that are able to disperse or clear preexisting bacterial biofilms would be highly valuable. Six of the bromophenazine analogues (11, 4a, 8a, 23a, 27a, 28a; see Table 2 and FIGS. 18-19) were evaluated in biofilm dispersion assays by allowing Staphylococcus aureus biofilms to establish in 96-well plates for 24 hours at 37° C. After this incubation time, the media and planktonic cells were removed followed by a wash of the 96-well plates with water. Phosphate buffered saline (PBS) was then added to the 96-well plate followed by the addition of bromophenazine compounds (with 2-fold serial dilutions of each compound tested). The resulting plates were then allowed to incubate at room temperature for 24 hours and stained with crystal violet to quantify biofilm dispersion.

[5] = S. aureus ATCC 25923, single replicate screen, read-out: Biofilm Inhibition IC50
[6] = Staphylococcus aureus, ATCC25923, Table 2, S. aureus ATCC 25923, Luria Broth, read-out: MIC
[7] = Table 2, S. aureus ATCC 25923, Luria Broth, read-out: MIC
[8] = ATCC25923, S. aureus ATCC 25923, 24 h in PBS at room temperature
[9] = S. aureus, three independent experiments, read-out: Biofilm inhibition IC50 (triplicate)
[10] = Staphylococcus aureus, ATCC25923, Table 1, ATCC 25923, range tested 0.10 to 100 μM, read-out: Staphylococcus aureus MIC
[11] = Staphylococcus aureus, ATCC25923, Table 1, ATCC 25923, read-out: Staphylococcus aureus MIC

Row | IC50 [1, 5] [nM] | MIC/IC50 Biofilm ([1]; S. aureus ATCC 25923) | MIC [2, 6] [µM] | MIC [2, 7] [µM] | EC50 [4, 8] [nM] | IC50 [1, 9] [nM] | SMILES | Phenotype ([1]; S. aureus ATCC 25923) | Biofilm Eradication MBEC [3] | Biofilm Dispersal Agent? ([4]; S. aureus ATCC 25923) | MIC [2, 10] [µM] | MIC [2, 11] [µg/mL] | fold more potent than compound 1 ([2]; Staphylococcus aureus) [fold] | MBEC:MIC ratio ([3]; MRSA-2 biofilm vs planktonic) | EC50 ([4]; ATCC25923, 24 h) [nM]
1 | 760 | 1.0 | 0.78 to 1.56 | 0.78 | > 100000 |  | O=C(OCC(Cl)(Cl)Cl)Oc1c(Br)cc(Br)c2nc3ccccc3nc12 [Compound 27a] | antibacterial | 125 µM | No |  |  |  |  | 
2 | 760 | 2.1 | 0.78 to 1.56 | 1.56 | > 100000 |  | O=C(OCCc1ccccc1)Oc1c(Br)cc(Br)c2nc3ccccc3nc12 [Compound 8a] | antibacterial |  | No |  |  |  |  | 
3 | 450 |  | > 100 |  |  | 550 | Cc1ccc(C(=O)Oc2c(Br)cc(Br)c3nc4ccccc4nc23)cc1 [Compound 18a] |  |  |  |  |  |  |  | 
4 | 12100 | >8.3 | > 100 |  |  |  | O=C(CCCC(=O)Oc1c(Br)cc(Br)c2nc3ccccc3nc12)Oc1c(Br)cc(Br)c2nc3ccccc3nc12 [Compound 5a] |  |  |  |  |  |  |  | 
5 | 360 | 4.3 | 0.78 to 1.56 | 1.56 |  |  | O=C(Oc1c(Br)cc(Br)c2nc3ccccc3nc12)c1cccc([N+](=O)[O-])c1 [Compound 15a] | antibacterial |  |  |  |  |  |  | 
6 | 770 | 2.0 | 0.78 to 1.56 | 1.56 | 2900 |  | COC(=O)Oc1c(Br)cc(Br)c2nc3ccccc3nc12 [Compound 28a] | antibacterial |  | Yes |  |  |  |  | 
7 | 760 |  | 0.78 to 1.56 | 0.78 | 1400 |  | O=C(Oc1c(Br)cc(Br)c2nc3ccccc3nc12)c1ccco1 [Compound 23a] | antibacterial | 62.5 to 100 µM | Yes |  |  |  |  | 
8 | 810 |  | > 100 |  |  | 1130 | O=C(Oc1c(Br)cc(Br)c2nc3ccccc3nc12)c1ccc(Br)cc1 [Compound 12a] |  |  |  |  |  |  |  | 
9 | 640 |  | > 100 |  |  | 770 | O=C(Oc1c(Br)cc(Br)c2nc3ccccc3nc12)c1ccc(Cl)cc1 [Compound 14a] |  |  |  |  |  |  |  | 
10 | 920 | 1.7 | 0.78 to 1.56 | 1.56 | 2600 |  | CCC(=O)Oc1c(Br)cc(Br)c2nc3ccccc3nc12 [Compound 4a] | antibacterial | 125 µM | Yes |  |  |  |  | 

Row | SMILES | IC50 [1, 5] [nM] | MIC/IC50 Biofilm ([1]; S. aureus ATCC 25923) | MIC [2, 6] [µM] | MIC [2, 7] [µM] | EC50 [4, 8] [nM] | IC50 [1, 9] [nM] | Phenotype ([1]; S. aureus ATCC 25923) | Biofilm Eradication MBEC [3] | Biofilm Dispersal Agent? ([4]; S. aureus ATCC 25923) | MIC [2, 10] [µM] | MIC [2, 11] [µg/mL] | fold more potent than compound 1 ([2]; Staphylococcus aureus) [fold] | MBEC:MIC ratio ([3]; MRSA-2 biofilm vs planktonic) | EC50 ([4]; ATCC25923, 24 h) [nM]
11 | Oc1c(Br)cc(Br)c2nc3ccccc3nc12 [Compound 11, 2,4-Dibromophenazin-1-ol] | 410 |  | 1.56 |  |  |  | antibacterial | 100-200^c μM | Yes | 1.56 | 0.55 | 32 | 64-128 | 29300
12 | CC(=O)Oc1c(Br)cc(Br)c2nc3ccccc3nc12 [Compound 21, 2,4-Dibromophenazin-1-yl acetate] | 420 | 2.8 | 0.78 to 1.56 |  |  |  | antibacterial |  |  | 0.78 to 1.56 | 0.31 to 0.62 | 32 |  | 
13 | O=C(Oc1c(Br)cc(Br)c2nc3ccccc3nc12)c1ccccc1 [Compound 23, 2,4-Dibromophenazin-1-yl benzoate] | 1710 | 0.9 | 1.56 |  |  |  | antibacterial |  |  | 1.56 | 0.72 |  |  | 
